The values that follow are results of earlier work, collected in publication PMC5686165, “Plant-to-plant communication triggered by systemin primes anti-herbivore resistance in tomato” (Scientific Reports, 2017).

The data set has as its system A. ervi. Particulars: tomato and A. ervi. How it is done:
The possible biological relevance of the systemin-triggered priming was evaluated using three different types of source plants. […] The qualitative and quantitative differences in VOCs emissions were confirmed by PLSDA analysis and explain the effect on parasitoid attraction. Compared to R-S4, all receiver plants, after 24 hours of exposition to the t ...

In the case of `C=C(C)CC(C)CCC` (stereo not shown) [2,4-dimethyl-1-heptene], the “elicitation of indirect defense in inter-specific plant-to-plant communication” value was “powerful elicitor of indirect defense”.
